Experimental data published in EP1004317A1, “REMEDIES FOR DISEASES ASSOCIATED WITH BONE RESORPTION” (CHUGAI SEIYAKU KABUSHIKI KAISHA, priority 1997, dated 1999).
Counter-ions that a name gives are not always drawn. Marks after values point to notes of the source that are not given here.

Assays:
[1] = tested on: ovariectomized rats; assay: Effect on ovariectomized rats: lumbar bone density; type: in vivo, Female Wistar-Imamichi rats; conditions: sham group = 100%, control OVX group 85.2%
From the text: (§1) Female Wistar-Imamichi rats were subjected to ovariectomy (OVX). As test drugs, use was made of L-N-6-(1-iminoethyl)lysine hydrochloride (NIL) and S-ethylisothiourea (EIT) which are known as selective iNOS inhibitors. […] To confirm the validity of the test system, 17-β-estradiol (βE2) was also employed.
(§2) One day after OVX, the rats were divided into 7 groups each having 7 animals. The administration of the drug was started on the day 4 after OVX. As a control, a sham group (7 animals) was also employed. NIL was orally administered in a dose of 0.1 or 0.02 mg/kg (0.1 ml per 100 g of body weight) 5 times per week for 10 weeks.
In this graph, the data are expressed in "mean ± standard deviation". According to Dunnet's multiple comparison method, the statistically significant differences from the control ovariectomy group are expressed as follows: • **: p < 0.01, ***: p < 0.001.

[2] = tested on: ovariectomized rats; assay: Effect on ovariectomized rats: biochemical parameter of urine (bone resorption marker); type: in vivo, Female Wistar-Imamichi rats; conditions: for D-pyr/Cre: OVX rats, urine collected after the final administration, mean ± standard deviation, n = 7, control OVX 11.83 ± 2.02
From the text: as §1, §2
According to Dunnet's multiple comparison method, the statistically significant differences from the control ovariectomy group are expressed as follows: **: p < 0.01, ***: p < 0.001.
Number of animals/group = 7. Mean ± standard deviation.

[3] = tested on: cNOS/iNOS; conditions: cited from earlier work
[4] = tested on: nNOS/iNOS; conditions: cited from earlier work
[5] = tested on: eNOS/iNOS; conditions: cited from earlier work

CC(=N)NCCCC[C@H](N)C(=O)O [NIL, L-N-6-(1-iminoethyl)lysine hydrochloride]
lumber bone density ([1]; 0.02 mg/kg orally, 5 times per week for 10 weeks): 86.8%
lumber bone density ([1]; 0.1 mg/kg orally, 5 times per week for 10 weeks): 90.2%
excretion of deoxypyridinoline (D-pyr), acceleration versus control OVX group (in words) ([2]; 0.02 mg/kg, p < 0.01): significantly inhibited
D-pyr/Cre ([2]; dose 0.02 mg/kg): 8.70 ± 1.59**
D-pyr/Cre ([2]; dose 0.1 mg/kg): 10.43 ± 1.15
cNOS/iNOS (NOS inhibitory activity expressed in the ratio of IC50) [3]: 28

C[C@]12CC[C@@H]3c4ccc(O)cc4CC[C@H]3[C@@H]1CC[C@@H]2O [βE2, 17-β-estradiol]
D-pyr/Cre ([2]; dose 0.02 mg/kg): 4.16 ± 1.45**

CCSC(=N)N [EIT, S-ethylisothiourea]
nNOS/iNOS (NOS inhibitory activity expressed in the ratio of IC50) [4]: 19.23
eNOS/iNOS (NOS inhibitory activity expressed in the ratio of IC50) [5]: 28.46
lumber bone density ([1]; EIT administration group, 24 hours after the final administration, p < 0.01): 92.6%
excretion of deoxypyridinoline (D-pyr) versus control OVX group (in words) ([2]; EIT administration group, no statistically significant difference): a tendency toward decrease
D-pyr/Cre ([2]; dose 0.1 mg/kg): 9.95 ± 1.71
